In data set [1] the test system is MV4-11 xenograft. Kind of data set: MV4-11 xenograft in immunocompromised mice. It counts as in vivo. An excerpt: Several compounds of the present invention have been studied in a xenograft in mice, an in vivo tumor transplantation model used to investigate the factors involved in malignant transformation, invasion and metastasis, as well as to examine response to therapy. For the purpose of acceptance of donor leukemic cells (MV4-11 or MOLM16 cells), immunocompromised mice were used, namely particularly severely compromised immunodeficient mice (NOD/scid, SCID/beige). When tumors developed size of approx. 50-200 mm^3, the compounds as indicated below in Tables 3 and 3a were administered orally every day for 2-3 weeks, in once a day (QD) or twice a day (BID) schedule. During the course of the experiment, the mice were monitored and the following two parameters were measured: the tumor growth inhibition (TGI) factor as a measure of therapeutic efficacy and the body weight change (ΔBW) factor as a measure of possible compound toxicity. The results are depicted in Tables 3 and 3a.
Next, compound 26A was evaluated in a xenograft study of acute myeloid leukemia (MV-4-11), alone or in a combinational treatment with Cytarabine in vivo (Table 3b; FIG. 6). Compound 26A was tested in two doses (50 and 25 mg/kg) and administered twice a day (BID); Cytarabine was administered at dose of 50 mg/kg three times in a week (TIW). During 15 days of compound administration dose-dependent anti-cancer activity of compound 26A (administered alone) was shown. Tumor growth inhibition reached −82% and −77%, respectively.

Data set [2] has as its system SW-480 cells. Kind of data set: Growth inhibition, MTS assay, SW-480. It counts as cell-based, Human. As to conditions: 72 hours, MTS cell viability, read-out: SW-480 ED50; for pIC50: Homo sapiens, SW480. An excerpt:
(§1) The following cell lines, were obtained and used in tests as outlined below: • Human myelomonocytic, biphenotypic leukemia MV4-11 cells (harboring a Flt3-ITD mutation); • Human Acute Myeloid Leukemia MOLM16 cells; • Human Acute Myeloid Leukemia MOLM13 cells (harboring a Flt3-ITD mutation); • Human Myeloid Leukemia KG-1 cells; • Human erythroleukemia HEL92 cells; • Human mantle cell lymphoma Jeko-1 cells; • Human hepatocellular carcinoma HepG2 cells; and • Human colon adenocarcinoma SW-480 cells.
(§2) The assays were carried out according to the following protocol, which is described as an example for the MV4-11 cells:
(§3) Ten thousand MV4-11 cells were inoculated into each well of a 96-well microplate (manufactured by Corning Corp.) using Iscove's MDM medium (culture medium) containing 10% fetal calf serum (FCS). The same day, a dimethyl sulfoxide (DMSO) solution of each test compound prepared in a concentration of 10 mmol/L was further diluted with DMSO to the desired concentrations (0.1, 0.5, 1, 2.5, 5 and 10 micromol/L), and the diluted solution was added to each well. The individual wells were further cultured in 5% carbon dioxide at 37° C. for 72 hours. […] Briefly, 10 μl MTS (3-(4,5-Dimethyl-2-thiazolyl)-5-(carboxymethoxyphenyl)-2-(4-sulfophenyl)-2H-tetrazolium was added to each well, and culturing was performed in 5% carbon dioxide at 37° C. for 2 hours. After this incubation and using a microplate spectrophotometer (Synergy 2 multi-mode microplate reader (BioTek)), the absorbance of each well was measured at 490 nm. The value for cells not incubated with a test compound was designated as 100%. By comparing these values with the absorbance difference obtained at the well in which each test compound was added, the cell viability (% viability) after treatment with the test compound was calculated.

Data set [3] concerns the target CDK2/E (Homo sapiens (Human), UniProt P24941). Description: ADP-Glo Kinase Assay, CDK2/E. The format is biochemical. As to conditions: 1 μM compound; for inhibition at 1 µM: read-out: CDK2/E % INH (1 μM). The procedure, abridged:
(§4)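 ADP-Glo luminescent ADP detection of human kinase activity in 5 mM MOPS pH 7.5, 5 mM MgCl2, 0.4 mM EDTA, 1.5 mM DTT. ATP at each kinase's apparent Km; compounds diluted to 1000 nM in assay buffer. Percent inhibition from normalised luminescence.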
For orientation: ADP-Glo turns the ADP formed in a reaction into a luminescent signal.

In data set [4] the target is Pim-1 (Homo sapiens (Human), UniProt P11309). Description: ADP-Glo Kinase Assay, Pim-1. To be noted: 1 μM compound; for inhibition at 1 µM: read-out: Pim-1 % INH (1 μM). It counts as biochemical. In short, it runs like this:
as §4

Data set [5] has as its target Pim-2 (Homo sapiens (Human), UniProt Q9P1W9). Kind of data set: ADP-Glo Kinase Assay, Pim-2. The format is biochemical. As to conditions: 1 μM compound; for inhibition at 1 µM: read-out: Pim-2 % INH (1 μM). The procedure, abridged: as §4
Data set [6] relates to MV4-11 cells. Description: Growth inhibition, MTS assay, MV4-11. To be noted: MTS cell viability, read-out: MV4-11 ED50; for IC50: 72 hours; for pIC50: Homo sapiens, MV4-11, 72 h. It counts as cell-based, Human. A general note: Tetrazolium assays rely on reduction of a dye to a coloured formazan, in cell work by metabolically active cells.
Data set [7] deals with HEL92 cells. Description: Growth inhibition, MTS assay, HEL92. It counts as cell-based, Human. As to conditions: MTS cell viability, read-out: HEL92 ED50; for IC50: 72 hours; for pIC50: Homo sapiens, 72 h.
For data set [8], the system named is HepG2 cells. Kind of data set: Growth inhibition, MTS assay, HepG2. It counts as cell-based, Human. To be noted: MTS cell viability, read-out: HepG2 ED50; for IC50: 72 hours; for pIC50: Homo sapiens, HepG2, 72 h.
Data set [9] has as its system Jeko-1 cells. Description: Growth inhibition, MTS assay, Jeko-1. As to conditions: 72 hours, MTS cell viability, read-out: Jeko-1 ED50; for pIC50: Homo sapiens, JeKo-1. The format is cell-based, Human.
Source text: as §1, §2, §3

For data set [10], the target named is Pim-3 (Homo sapiens (Human), UniProt Q86V86). Kind of data set: ADP-Glo Kinase Assay, Pim-3. The format is biochemical. To be noted: 1 μM compound; for inhibition at 1 µM: read-out: Pim-3 % INH (1 μM). The procedure, abridged:
as §4

Data set [11] addresses FLT3wt (Homo sapiens (Human), UniProt P36888). Description: ADP-Glo Kinase Assay, Flt3 wt. It counts as biochemical. As to conditions: 1 μM compound; for inhibition at 1 µM: read-out: Flt3wt % INH (1 μM). In short, it runs like this: as §4
The target of data set [12] is DYRK1 (Homo sapiens (Human), UniProt Q13627). Description: ADP-Glo Kinase Assay, DYRK1. The format is biochemical. To be noted: 1 μM compound; for inhibition at 1 µM: read-out: DYRK1A % INH (1 μM). In short, it runs like this: as §4
Setting [13] is: MV-4-11 xenograft, Cytarabine 50 mg/Kg TIW.
Where [14] appears, read: MV4-11 xenograft, oral, 150 mg/Kg QD.

pIC50: −log10 of the molar value. Counter-ions that a name gives are not always drawn. Like-named read-outs stand apart in the source and are kept apart here.

FLT3wt, sequence (P36888 27-993): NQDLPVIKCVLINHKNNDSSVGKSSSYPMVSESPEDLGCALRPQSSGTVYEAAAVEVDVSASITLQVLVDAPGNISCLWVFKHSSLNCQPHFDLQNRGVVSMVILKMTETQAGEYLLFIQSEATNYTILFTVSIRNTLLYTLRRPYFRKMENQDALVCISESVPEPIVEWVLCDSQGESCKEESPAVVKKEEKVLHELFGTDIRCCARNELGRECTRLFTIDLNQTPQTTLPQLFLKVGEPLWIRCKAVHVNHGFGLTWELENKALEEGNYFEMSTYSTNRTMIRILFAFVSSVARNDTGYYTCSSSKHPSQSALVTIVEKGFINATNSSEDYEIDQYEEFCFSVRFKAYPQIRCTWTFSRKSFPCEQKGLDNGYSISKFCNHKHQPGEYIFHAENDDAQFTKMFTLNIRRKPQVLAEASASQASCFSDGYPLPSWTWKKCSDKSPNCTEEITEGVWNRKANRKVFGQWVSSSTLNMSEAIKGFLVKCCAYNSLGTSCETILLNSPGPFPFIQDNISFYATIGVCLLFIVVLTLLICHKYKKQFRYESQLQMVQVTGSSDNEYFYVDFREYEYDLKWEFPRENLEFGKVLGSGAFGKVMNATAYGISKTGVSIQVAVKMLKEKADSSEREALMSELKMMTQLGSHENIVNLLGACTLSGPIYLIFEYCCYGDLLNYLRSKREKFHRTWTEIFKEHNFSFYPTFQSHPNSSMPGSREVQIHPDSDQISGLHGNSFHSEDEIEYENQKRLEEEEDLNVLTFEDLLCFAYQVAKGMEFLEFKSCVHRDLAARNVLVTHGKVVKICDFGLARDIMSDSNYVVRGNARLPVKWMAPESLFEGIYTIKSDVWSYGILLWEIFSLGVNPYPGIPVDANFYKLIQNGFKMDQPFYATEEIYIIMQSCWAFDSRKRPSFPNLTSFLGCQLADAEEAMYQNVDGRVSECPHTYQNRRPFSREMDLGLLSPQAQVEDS
Pim-2, sequence (Q9P1W9 whole entry): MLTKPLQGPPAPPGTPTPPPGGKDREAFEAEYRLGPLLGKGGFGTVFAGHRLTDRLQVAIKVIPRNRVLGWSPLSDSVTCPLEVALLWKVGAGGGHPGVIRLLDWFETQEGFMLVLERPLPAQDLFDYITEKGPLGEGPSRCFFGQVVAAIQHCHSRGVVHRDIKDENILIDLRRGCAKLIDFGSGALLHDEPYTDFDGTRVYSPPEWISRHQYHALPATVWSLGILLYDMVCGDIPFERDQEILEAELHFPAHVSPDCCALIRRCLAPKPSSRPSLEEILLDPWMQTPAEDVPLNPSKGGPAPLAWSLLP
Pim-1, sequence (P11309 whole entry): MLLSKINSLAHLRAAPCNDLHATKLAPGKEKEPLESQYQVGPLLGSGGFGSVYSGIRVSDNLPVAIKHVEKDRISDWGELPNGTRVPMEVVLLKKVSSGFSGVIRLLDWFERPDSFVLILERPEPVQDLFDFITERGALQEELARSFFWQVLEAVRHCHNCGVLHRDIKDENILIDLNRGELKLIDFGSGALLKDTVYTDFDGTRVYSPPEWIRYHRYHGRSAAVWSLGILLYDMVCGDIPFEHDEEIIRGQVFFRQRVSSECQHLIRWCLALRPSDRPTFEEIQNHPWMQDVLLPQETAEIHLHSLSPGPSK

Regarding `Nc1ccn([C@@H]2O[C@H](CO)[C@@H](O)[C@@H]2O)c(=O)n1` [Cytarabine, cytarabine, reference compound], in [1] (setting [13]), the “TGI (tumor growth inhibition)” value stood at 60% and the “ΔBW (body weight change)” value is given as −2%.
For `NCCCNc1nc2c([N+](=O)[O-])c(Br)c(Br)cc2n1CC1CC1` [Example 1AB], the IC50 in data set [2] is given as 3.2 µM; in [6], 2.8 µM; in data set [7], 5.8 µM; in data set [8], 2.3 µM; in data set [9], 1.2 µM. Also, the “CDK2/E % INH (1 μM)” value in [3] is less than 5%. Further, in [4], the “Pim-1 % INH (1 μM)” value is listed as greater than 95%. Moreover, the “Pim-2 % INH (1 μM)” value in data set [5] came to 46%. For the same molecule, the “Pim-3 % INH (1 μM)” value in data set [10] came out at 87%. The “Flt3wt % INH (1 μM)” value in data set [11] is less than 5%.
Take `CC(C)n1c(N2CC[C@H](N)C2)nc2c([N+](=O)[O-])c(Br)c(Br)cc21` [Example 1AZ]: in [3], the “CDK2/E % INH (1 μM)” value is given as 38%. Also, the “Pim-1 % INH (1 μM)” value in data set [4] is greater than 95%. Besides, the “DYRK1A % INH (1 μM)” value in data set [12] amounted to 72%. In addition, the “Pim-2 % INH (1 μM)” value in data set [5] amounted to 70%. The IC50 is given as 1.1 µM in [6], 2.6 µM in [7] and 2.2 µM in data set [8]. Besides, the “TGI (tumor growth inhibition)” value was 76% in data set [1] (setting [14]) and “more than 70%” in [1] (MV4-11 xenograft, oral, doses as in Table 3). Also, the “ΔBW (body weight change)” value in data set [1] (setting [14]) is recorded as −0.2%. Moreover, the “Pim-3 % INH (1 μM)” value in data set [10] came out at 94%. Besides, the “Flt3wt % INH (1 μM)” value in data set [11] came to 48%.
`CC(C)n1c(NCCCN)nc2c([N+](=O)[O-])c(Br)c(Br)cc21` [Example 1L]: the pIC50 in data set [2] was 5.48; in [6], 5.92; in [7], 5.24; in data set [8], 5.80. Further, the inhibition at 1 µM is 32% in data set [3]; greater than 95% in data set [4]; 47% in data set [12]; 58% in [5]; greater than 95% in [10]; 21% in data set [11].
As for `CC(C)n1c(N2CCCC(N)C2)nc2c([N+](=O)[O-])c(Br)c(Br)cc21` (centres unmarked) [Example 1T], the pIC50 is 5.49 in data set [2]; 6.22 in data set [6]; 5.29 in data set [7]; 5.89 in data set [8]; 5.77 in data set [9]. Moreover, the inhibition at 1 µM in [3] is 7%; in data set [4], greater than 95%; in data set [12], 27%; in data set [5], 81%; in [10], greater than 95%; in data set [11], 21%.
Regarding `CCCn1c(N2CCCC(N)C2)nc2c([N+](=O)[O-])c(Br)c(Br)cc21` (centres unmarked) [Example 1U], the pIC50 in [2] was 5.48; in data set [6], 6.22; in [7], 5.33; in data set [8], 5.82; in data set [9], 5.74. Further, the inhibition at 1 µM is less than 5% in data set [3]; greater than 95% in [4]; 35% in [12]; 37% in [5]; greater than 95% in data set [10]; 9% in data set [11].
Turning to `CC(C)Cn1c(N2CCCC(N)C2)nc2c([N+](=O)[O-])c(Br)c(Br)cc21` (centres unmarked) [Example 1V], the pIC50 in [2] was 5.51; in data set [6], 6.15; in data set [7], 5.25; in data set [8], 6.05; in data set [9], 5.54. The inhibition at 1 µM in data set [3] was less than 5%; in data set [4] it was greater than 95%; in data set [12] it was 11%; in data set [10] it was greater than 95%; in data set [11], less than 5%.
With `CCn1c(N2CCCC2CN)nc2c([N+](=O)[O-])c(Br)c(Br)cc21` (centres unmarked) [Example 1Z], the pIC50 is 5.16 in [2], 5.77 in data set [6], 5.19 in data set [8] and 5.25 in data set [9]. The inhibition at 1 µM in data set [3] was less than 5%; in data set [4], 67%; in data set [10], 92%; in data set [11], less than 5%.
For the molecule `CC(C)=CCn1c(N2CCNCC2)nc2c([N+](=O)[O-])c(Br)c(Br)cc21` [Example 2E, 5,6-dibromo-1-(3-methylbut-2-en-1-yl)-4-nitro-2-(piperazin-1-yl)-1H-1,3-benzodiazole hydrochloride], the pIC50 in data set [2] was 5.74; in data set [6], 5.26; in data set [7], 5.27; in data set [8], 6.05; in [9], 5.80. For the same molecule, the inhibition at 1 µM in [3] came to 15%; in [4] it was 79%; in [12], 72%; in data set [5], 63%; in [10], 56%; in [11], 25%.
`O=[N+]([O-])c1c(Br)c(Br)cc2c1nc(N1CCNCC1)n2C1CC1` [Example 21A, 5,6-dibromo-1-cyclopropyl-4-nitro-2-(piperazin-1-yl)-1H-1,3-benzodiazole trifluoroacetate]: the pIC50 in data set [2] is 5.49; in [6], 6.30; in data set [7], 5.72; in data set [8], 5.80; in data set [9] it was 6.22. The inhibition at 1 µM in data set [3] came to 5%; in [4], 87%; in data set [12] it was 50%; in [5], 42%; in data set [10], 71%; in data set [11], 37%.
As for `CCn1c(NC2CCC(O)CC2)nc2c([N+](=O)[O-])c(Br)c(Br)cc21` (centres unmarked) [Example 22B, 4-[(5,6-dibromo-1-ethyl-4-nitro-1H-1,3-benzodiazol-2-yl)amino]cyclohexan-1-ol], the pIC50 in data set [2] was 5.22; in data set [6], 5.10; in data set [7], 5.06; in data set [8] it was less than 5.00; in data set [9], 5.52.

For the origin of these results see patent US10174013B2, “Benzimidazole derivatives as kinase inhibitors” (SELVITA S.A., priority 2012, dated 2019).
